“Also recorded” adds a separate entry of the source.
Columns and labels:
[1] = tested on: HCV replicon H/FL-Neo (genotype 1a (H77), full length construct); assay: Secondary anti-HCV assay, replicon H/FL-Neo; type: cell-based; settings: Hepatitis C virus
Text: This assay assesses activity against additional genotypes using the format described for the primary assay. Activity against the genotype 1b HCV was included for comparison. A replicon cell line containing H/FL-Neo (genotype 1a (H77), full length construct) (Blight, et al., 2003, J. Virol. 77:3181) was used.

human hepatitis B virus = assay: Anti-HBV activity in the HBV transgenic mouse model, oral administration; type: in vivo, transgenic mice; settings: for Liver HBV DNA Southern blot (pg/μg mean ± sd): p.o.
Description: Compound 6k was evaluated for anti-HBV activity in the transgenic mouse model of HBV infection. Male transgenic mouse infected with HBV, with age ranging from 78 to 108 days were used. Compound 6k was initially evaluated at a single dose of 300 mg/kg, administered daily for 14 days by oral gavage. The compounds were administered in citric acid and adefovir dipivoxil was used as a positive control. A control group which received vehicle was used a negative control. Following the treatment, mice were sacrificed and liver tissue analyzed for HBV DNA using Southern blot analysis. The data was statistically evaluated using Kruskall-Wallis non-parametric ANOVA.
(§1) (a) Male and female transgenic mice (founder 1.3.32) were infected with human hepatitis B virus. Following infection, animals were orally administered Compound 6k, or a placebo of 0.05 M citric acid, pH 2.0 once daily for 14 days. Dosage was 300 mg/kg/d for Compound 6k. The positive control, ADV, was administered at 10 mg/kg/d.
as §1, with “Male” for “(a) Male”, “add,” for “acid,”, “Dosages were 100, 10.5 and 1” for “Dosage was 300”, “6K.” for “6k.”

NOD2 = assay: IRF3 induction in HEK cells with or without transfected NOD2; type: cell-based
RIG-I = molecular target: T1, RIG-I (Homo sapiens, UniProt O95786); assay: RIG-I translocation on dsRNA, single-molecule PIFE assay; type: biochemical
T1 sequence (O95786 1-925): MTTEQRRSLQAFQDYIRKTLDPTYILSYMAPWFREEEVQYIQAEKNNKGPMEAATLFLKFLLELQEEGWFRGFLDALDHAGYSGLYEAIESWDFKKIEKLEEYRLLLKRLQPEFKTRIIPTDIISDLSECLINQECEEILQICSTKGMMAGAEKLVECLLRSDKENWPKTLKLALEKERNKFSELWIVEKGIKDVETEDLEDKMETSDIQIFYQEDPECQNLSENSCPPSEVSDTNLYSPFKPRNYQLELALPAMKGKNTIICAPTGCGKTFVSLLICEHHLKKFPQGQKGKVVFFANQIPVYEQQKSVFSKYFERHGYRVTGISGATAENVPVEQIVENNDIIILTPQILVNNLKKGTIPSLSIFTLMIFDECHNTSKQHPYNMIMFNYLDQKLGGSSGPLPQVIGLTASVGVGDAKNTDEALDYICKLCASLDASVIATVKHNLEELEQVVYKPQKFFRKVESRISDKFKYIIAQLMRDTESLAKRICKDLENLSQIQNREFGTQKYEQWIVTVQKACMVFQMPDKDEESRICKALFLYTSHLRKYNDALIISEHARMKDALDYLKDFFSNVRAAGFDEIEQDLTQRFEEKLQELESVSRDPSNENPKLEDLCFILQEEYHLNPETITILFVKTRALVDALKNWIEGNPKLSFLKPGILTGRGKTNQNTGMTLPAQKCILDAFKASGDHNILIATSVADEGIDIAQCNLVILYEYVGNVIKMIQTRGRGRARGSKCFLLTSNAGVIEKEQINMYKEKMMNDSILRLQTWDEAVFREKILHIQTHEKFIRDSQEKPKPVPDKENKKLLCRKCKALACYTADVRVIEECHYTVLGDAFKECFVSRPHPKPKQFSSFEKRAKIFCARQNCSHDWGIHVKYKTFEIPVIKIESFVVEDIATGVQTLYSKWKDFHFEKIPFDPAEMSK
Description: An in vitro single-molecule fluorescence assay termed PIFE (protein induced fluorescence enhancement) was employed to monitor such movement (Myong, S. et al., Science, 323, 1070, 2009).
For quantitation of RIG-I translocation, Single molecule PIFE yields were estimated. Single molecule PIFE yields are obtained from several hundred molecules simultaneously, allowing statistically reliable data collection.
The translocation as above was carried out using different concentrations of nucleotide compound.
A standard dsRNA (25 bp) was used as a main substrate for RIG-I translocation assay. […] The ratio between rapid (stimulated) translocation and slow translocation would be accounted for in the estimation of compound strength. In order to quantify the affinity of the compound to RIG-I or to RNA substrate, various concentrations of the compound (1-100 μM range) were used in the assay. This enabled the calculation of the association/dissociation constant for each compound, which was a useful measure to apply in cell-based evaluation of compound potency.
The same translocation assay was used on dsRNA, which contains […] moiety with and without the compound.

[2] = 300 mg/kg/d, oral, once daily 14 days

What does the source list for `CO[C@H]1C(OP(=O)(OC[C@H]2O[C@@H](n3cnc4c(N)ncnc43)CC2O)SCOC(=O)OC(C)C)[C@@H](CO)O[C@H]1n1ccc(=O)[nH]c1=O` (stereo partly drawn) [Compound 6k]?
EC50 [1]: 1 µM; EC90 [1]: ~6 µM; Liver HBV DNA Southern blot (pg/μg mean ± sd) (human hepatitis B virus; 1 mg/kg/d, qd × 14 d): 16.4 ± 14.7 (6) pg/μg; Liver HBV DNA Southern blot (pg/μg mean ± sd) (human hepatitis B virus; 10 mg/kg/d, qd × 14 d (Table 2)): 3.4 ± 4.4 (7) pg/μg; Liver HBV DNA Southern blot (pg/μg mean ± sd) (human hepatitis B virus; 100 mg/kg/d, qd × 14 d): 7.2 ± 8.9 (6) pg/μg; reduction of liver HBV DNA compared to untreated control (human hepatitis B virus; 300 mg/kg daily for 14 days by oral gavage): up to 2 log; Liver HBV RNA (log transcripts ± sd) (human hepatitis B virus; [2]): 10.8 ± 0.4 log transcripts; QPCR Liver HBV DNA (pg/μg mean ± sd) (human hepatitis B virus; [2]): 13.3 ± 12 pg/µg; Southern blot Liver HBV DNA (pg/μg mean ± sd) (human hepatitis B virus; 300 mg/kg/d, oral, once daily 14 days (Table 1)): 5.7 ± 3.2 pg/µg; Liver HBV DNA Southern blot (pg/μg mean ± sd) (human hepatitis B virus; 300 mg/kg/d, qd × 14 d (Table 2)): 4.8 ± 4.4 (2) pg/μg; EC50 when administered orally to a hepatitis B transgenic mouse model (human hepatitis B virus; oral): approximately 10 mg/kg

For `CO[C@H]1C(OP(=O)(S)OC[C@H]2O[C@@H](n3cnc4c(N)ncnc43)CC2O)[C@@H](CO)O[C@H]1n1ccc(=O)[nH]c1=O` (stereo partly drawn) [Compound 5, 3-dApsU2′-OMe], which “induction of IRF3” value (NOD2; HEK cells transfected with NOD2) is on record?
The value was “cause induction of IRF3”.

And the “induction of IRF3” value (NOD2; NOD2 deficient HEK cells)?
Its value is “failed to induce IRF3”.

What about the “RIG-I translocation on dsRNA (activity in words)” value (RIG-I; PIFE assay) of the same compound?
Its value is “rapid translocation on dsRNA in a dose-dependent manner; also recorded: strong activators of RIG-I translocation”.

What about the “proportion of fast RIG-I translocation” value (RIG-I; concentration increased from 5 μM up to 170 μM) of the same compound?
Its value is “corresponding increase in the proportion of fast translocation”.
